From patent US12539301B2, “Compound external preparation for treating alopecia areata and preparation method therefor” (CHANGSHA JINGYI PHARMACEUTICAL TECHNOLOGY CO., LTD, priority 2020, dated 2026)
Structures can show the parent of a compound that is named as a salt. Where two headings read alike, the source gives them in different places.

Legend:
[1] = assay type: physicochemical; details: for Dissolution condition: 100 parts per 1 part API, 30 min, heating (60° C.), after cooling
Excerpt: Dissolution condition and dissolution required for quantifying the API in a quantitive solvent were used as preliminary evaluation indexes, and a solvent capable of dissolving both active ingredients is preferred. Icon meaning: x: insoluble (this system is a white opaque suspension with visible white solid particles); ∘: incompletely soluble (this system is partially transparent, with white visible bulk solids or suspended solids); √ completely soluble (the system is a completely transparent solution, without suspended substances and solid insoluble substances); and /: not investigated.

[2] = Solubility and storage stability (crystallization) of tofacitinib in gels and liniments with and without minoxidil; assay type: physicochemical; details: in water and an organic solvent, gel kept stable
Experimental: (1) Different proportions of tofacitinib were set, a mixture of water and an organic solvent was used as a mixed solvent, and a single gel and a compound gel, and a single liniment and a compound liniment were prepared for comparatively investigating dissolved states of tofacitinib in the preparations with and without addition of minoxidil. The samples were stored at the room temperature for 1 month after the preparations were prepared, and stability of tofacitinib was evaluated by whether crystallization occurred or not during the storage.
(2) For an unstable preparation which is easy to precipitate tofacitinib crystals during the storage, adjustments were made by adding an organic solvent component, a surfactant, a crystallization inhibitor, or a thickening agent, increasing an amount of minoxidil, for comparatively investigating improvement of the stability of tofacitinib in the preparations with the above methods.
Solubility: (∘: incompletely soluble; √: completely soluble); and stability: (x: crystallization and precipitation; √: non-crystallization) […]

- Solubility in single solvents (in words) [1]: poor solubility
- Dissolution condition ([1]; Example 16-b: Propylene glycol:water = 1:9 (w/w)): ✓
- Dissolution condition ([1]; Example 16-c: Propylene glycol:water = 3:7 (w/w)): ✓
- Dissolution condition ([1]; Example 16-d: Propylene glycol:water = 5:5 (w/w)): ✓
- Dissolution condition ([1]; Example 16-e: Propylene glycol:water = 7:3 (w/w)): ✓
- Dissolution condition ([1]; Example 16-f: Propylene glycol:water = 9:1 (w/w)): ✓
- Dissolution condition ([1]; Example 17: Propylene glycol:water:ethanol = 5:2:3 (w/w)): ✓
- Amount of tofacitinib (calculated by the prototype) dissolved by minoxidil [2]: 0.05-1.0 times the amount of minoxidil
SMILES: C[C@@H]1CCN(C(=O)CC#N)C[C@@H]1N(C)c1ncnc2[nH]ccc12 [Tofacitinib citrate]
